This note sets out measurements from publication PMC7063992, “Opossum Cathelicidins Exhibit Antimicrobial Activity Against a Broad Spectrum of Pathogens Including West Nile Virus” (Frontiers in Immunology, 2020).

Like-named read-outs stand apart in the source and are kept apart here.

For data set [1], the system named is Staphylococcus aureus ATCC 6538. Description: microbe, parasite or virus in culture. Type of data set: cell-based. As to conditions: S. aureus ATCC 6538, MHB, 37°C 6 h + 2 h, triplicate. As for the experimental part:
(§1) Peptides corresponding to the predicted antimicrobial regions of ModoCath1 (ΔModoCath1, N-VKRTKRGARRGL […]-C), ModoCath5 (ΔModoCath5, N-[…]-C), ModoCath6 (ΔModoCath6, N-[…]-C) and PMAP36 (N-[…] PLGCG-C) were synthesized via solid-phase peptide synthesis and purified via high-performance liquid chromatography using a commercial service (GenScript, Piscataway Township, NJ, United States). The MIC of synthesized peptides was determined against a panel of bacteria comprising 3 gram-positive strains, Staphylococcus aureus ATCC 6538 (ATCC, Manassas, VA, United States), Bacillus cereus ATCC 10876, and Enterococcus faecalis ATCC 29212, and 3 gram-negative strains, Escherichia coli ATCC 25922, Pseudomonas aeruginosa ATCC 27853, and Salmonella typhimurium ATCC 14028. Ampicillin (Sigma Aldrich, St. Louis, MO, United States) and gentamicin sulfate (Sigma Aldrich) were used as controls for antimicrobial activity. The MIC was determined using a colorimetric method specified by the Microbial Viability Assay Kit-WST (Dojindo, Kumamoto, Japan) in accordance with the manufacturer’s protocol and the Clinical and Laboratory Standards Institute (CLSI) guidelines (2018). Briefly, four colonies of each bacterium were inoculated into 5 mL Luria-Bertani (LB) broth medium at 37°C for 4 to 6 h. The cells were washed with sterile saline (0.9% NaCl) twice and seeded in a single well of a 96-well plate at the cell density of 10^5 CFU/well. Subsequently, 180 μL/well of fresh Mueller-Hinton broth (MHB) was added to the plate. Different concentrations of each peptide and reference antibiotics were serially diluted in 10 μL of MHB and added to each well. The plate was incubated at 37°C for 6 h. Cation-adjusted MH broth (CAMHB) was used to culture E. faecalis. Subsequently, 10 μL of the coloring reagent was added, and cells were incubated at 37°C for 2 h. UV absorbance was measured for each well at 450 nm, using a microplate spectrophotometer (xMark spectrophotometer; Bio-Rad, Hercules, CA, United States). MIC values were determined when the difference in the optical density (OD) between treatments and blanks (media and coloring reagent only) decreased to < 0.05. Experiments were conducted in triplicate. […] The pH conditions were achieved by using acetic acid (Sigma Aldrich).

For data set [2], the system named is Escherichia coli ATCC 25922. Description: microbe, parasite or virus in culture. The data set is classed as cell-based. As to conditions: E. coli ATCC 25922, MHB, 10^5 CFU/well, 37°C 6 h + 2 h with coloring reagent, OD 450 nm, triplicate. As for the experimental part: as §1
The test system of data set [3] is Bacillus cereus ATCC 10876. Kind of data set: microbe, parasite or virus in culture. As to conditions: B. cereus ATCC 10876, MHB, 37°C 6 h + 2 h, triplicate. The data set is classed as cell-based. The procedure:
as §1

Another data set relates to MCF7. Kind of data set: Mammalian cell cytotoxicity, WST-1. The conditions noted are these: positive control for complete cell lysis, concentration not given. Type of data set: cell-based, human. The procedure:
(§2) Two mammalian cell lines, including human embryonic kidney cells (HEK293T) and human breast cancer cells (MCF7) were cultured in Dulbecco’s modified Eagle’s medium (DMEM; Hyclone^TM, Logan, UT, United States) supplemented with 10% FBS (Hyclone^TM) and 1% penicillin/streptomycin (Hyclone^TM) and incubated at 37°C and 5% CO2 up to 80% confluence. Cellular adherence to the substratum was disrupted using Accutase (Innovative Cell Technologies, San Diego, CA, United States). In total, 1 × 10^4 to 4 × 10^4 cells in each well of a 96-well plate containing 8, 16, 32, and 64 μg/mL of ModoCath peptides were incubated for 24 h at 37°C and 5% CO2. Additionally, HEK293T cells were incubated in the FBS-free medium. Triton X 100 (Sigma Aldrich) was used as a positive control for complete cell lysis, and untreated cells were used as the negative control. After incubation, the medium was removed from the wells, and 10 μL of coloring solution (Cell Proliferation Reagent WST-1^TM; Sigma Aldrich) and 100 μL of DMEM (Hyclone^TM) were added to the wells in accordance with the manufacturer’s protocol. Absorbance was measured for each well at 440 nm (peptide-treated and control) and 650 nm (background) and recorded as the OD, using a microplate reader (xMark^TM spectrophotometer; Bio-Rad). Cell viability was calculated using the following equation:
(§3) (1) CellViability(%)=100×(ODpeptide-ODbackground)/(ODnegative-ODbackground)
(§4) All experiments were performed in triplicate.
For orientation: Formazan colour is commonly taken as a measure of viable cells.

Another data set deals with HEK293T. Kind of data set: Mammalian cell cytotoxicity, WST-1. The conditions noted are these: positive control for complete cell lysis, concentration not given. The data set is classed as cell-based, human. As for the experimental part: as §2, §3, §4
Data set [4] concerns Human primary keratinocytes. Kind of data set: Viability of keratinocytes, XTT. The data set is classed as cell-based. The conditions noted are these: positive control, concentration not given. The source says:
The Ethics Committee of the Poitiers Hospital approved the use of human skin samples for research studies. All subjects provided written informed consent in accordance with the tenets of the Declaration of Helsinki. Normal abdominal or breast skin samples were obtained from patients undergoing plastic surgery and thoroughly washed with PBS free of calcium and magnesium (PBS; Gibco, Thermo Fisher Scientific, Waltham, MA, United States) after fat removal. The skin samples were minced into fragments of approximately 125 mm^2, using scalpel blades. Skin samples were incubated overnight at 4°C in a dispase solution (25 U/mL; Life Technologies, Carlsbad, CA, United States). Epidermal sheets were removed from the dermis, and keratinocytes were dissociated via trypsin digestion (trypsin-EDTA; Gibco) for 15 min at 37°C. The cell suspension was then filtered through a 280-μm sterile filter. DMEM (Gibco) supplemented with 10% (vol/vol) of FBS (Gibco) was added, and the suspension was centrifuged at 300 × g and 25°C for 10 min. Keratinocytes were seeded at a density of 10^7 cells in 75-cm^2 tissue culture flask in keratinocyte-serum free medium (K-SFM; Invitrogen, Carlsbad, CA, United States) supplemented with bovine pituitary extract (25 μg/mL; Invitrogen) and recombinant epidermal growth factor (EGF) (0.25 ng/mL; Invitrogen). The cultures were incubated at 37°C in a humidified atmosphere with 5% CO2 until 80% confluence and then stored frozen in liquid nitrogen until use. Finally, keratinocytes were seeded in sterile 24-well culture plates at 10^5 cells/well in K-SFM supplemented with bovine pituitary extract and EGF and cultured to 80% confluence. Cells were then starved overnight in K-SFM alone before stimulation.
Primary keratinocytes were cultured in 96-well plates at 4 × 10^4 cells per well in 0.1 mL K-SFM (Invitrogen) up to 80% confluence before being treated with various concentrations of ModoCath peptides for 24 h. Cell viability was assessed using the cell proliferation kit II (XTT; Roche, Basel, Switzerland) in accordance with the manufacturer’s protocol. The XTT labeling mixture was added after 24 h of incubation in the absence or presence of peptides at the indicated concentrations.

Data set [5] relates to Pseudomonas aeruginosa ATCC 27853. Kind of data set: microbe, parasite or virus in culture. The data set is classed as cell-based. As to conditions: P. aeruginosa ATCC 27853, MHB, 37°C 6 h + 2 h, triplicate. The procedure: as §1
The test system of data set [6] is Salmonella typhimurium ATCC 14028. Description: microbe, parasite or virus in culture. Type of data set: cell-based. The conditions noted are these: S. typhimurium ATCC 14028, MHB, 37°C 6 h + 2 h, triplicate. As for the experimental part:
as §1

The subject of data set [7] is Enterococcus faecalis ATCC 29212. Kind of data set: microbe, parasite or virus in culture. Type of data set: cell-based. The conditions noted are these: E. faecalis ATCC 29212, CAMHB, 37°C 6 h + 2 h, triplicate. As for the experimental part: as §1
Setting [8] is: Staphylococcus aureus, ATCC6538, read-out: MIC.
The mark [9] stands for this setting: Escherichia coli, ATCC25922, read-out: MIC.
Setting [10] is: Bacillus cereus, ATCC10876, read-out: MIC.

In the case of Nisin, the MIC is given as 15 (4.47) μg/mL in data set [1], > 32(9.54) μg/mL in [2] and 32 (9.54) μg/mL in data set [3].

Turning to Triton X-100 [reference compound], the “Cell viability ± SD” value is reported as 11.4 ± 0.4% in the data set with MCF7, 11.6 ± 2.5% with HEK293T and 8.2 ± 0.4% in data set [4].

Turning to `CC1(C)S[C@@H]2[C@H](NC(=O)[C@H](N)c3ccccc3)C(=O)N2[C@H]1C(=O)O` [Ampicillin, reference compound], the MIC in [5] (Pseudomonas aeruginosa, ATCC27853, read-out: MIC) was > 128 µg/mL; in data set [1] (setting [8]), 1 µg/mL; in [6] (Salmonella enterica, read-out: MIC), 1 µg/mL; in data set [2] (setting [9]), 1 µg/mL; in [7] (Enterococcus faecalis, ATCC29212, read-out: MIC), 2 µg/mL; in data set [3] (setting [10]) it was 16 µg/mL.

For “gentamicin sulfate [Gentamycin, reference compound]”, the MIC in [5] is on record as 1 (2.09) μg/mL; in [1], 1 (2.09) μg/mL; in data set [6], 1 (2.09) μg/mL; in data set [2], 1 (2.09) μg/mL; in data set [7], 5 (10.45) μg/mL; in data set [3], 1 (2.09) μg/mL.

For `CN[C@H](CC(C)C)C(=O)N[C@H]1C(=O)N[C@@H](CC(N)=O)C(=O)N[C@H]2C(=O)N[C@H]3C(=O)N[C@H](C(=O)N[C@H](C(=O)O)c4cc(O)cc(O)c4-c4cc3ccc4O)[C@H](O)c3ccc(c(Cl)c3)Oc3cc2cc(c3O[C@@H]2O[C@H](CO)[C@@H](O)[C@H](O)[C@H]2O[C@H]2C[C@](C)(N)[C@H](O)[C@H](C)O2)Oc2ccc(cc2Cl)[C@H]1O` [Vancomycin], the MIC was found to be 5 µg/mL in data set [1] (setting [8]), 32 µg/mL in [2] (setting [9]) and 4 µg/mL in data set [3] (setting [10]).
